From patent US20260231994A1, “TASTE-ENHANCING COMPOSITION, METHOD FOR PRODUCING SAME, FOOD PRODUCT, AND METHOD FOR ENHANCING TASTE OF FOOD PRODUCT” (HOUSE FOODS GROUP INC., priority 2023, published 2026)

How the values were obtained:
Assay type in all cases: in vivo
[1] = Experiment 6 sensory evaluation of cyclic dipeptides, “top sharp saltiness”
Experimental: (§1) An aqueous solution in which the concentration of each of the cyclic dipeptides shown in the table described below is set to be the same as its concentration in the heat-treated coriander prepared in 1.1. described above, as estimated from the ratio of the peak area of the cyclic dipeptides to the peak area of the internal standard (47 μg/g of L-lysine-^13C6 monohydrochloride) (hereinafter referred to as “heat-treated coriander equivalent aqueous solution”) was prepared. An aqueous solution in which the concentration of each of the cyclic dipeptides is set to be the same as its concentration in the heat-treated paprika of Example 203 prepared in 2.1 described above (hereinafter referred to as “heat-treated paprika equivalent aqueous solution”) was also prepared. Cyclic dipeptides prepared by the applicant were used in this experiment. As a cyclic dipeptide comprising Leu/Ile, a mixture comprising equal parts of cyclic dipeptide comprising Leu and cyclic dipeptide comprising Ile was used.
(§2) Common and reduced-sodium curry rouxes were prepared according to the procedures described in (1) and (2) of 1.3. described above.
(§3) Two dispersions of 44 g of the aforesaid reduced-sodium curry roux dispersed in 300 g of hot water were prepared. To one of them was added the heat-treated coriander equivalent solution or heat-treated paprika equivalent aqueous solution of the individual cyclic dipeptides shown in the table described below so as to be in the final concentration of 0.5% (w/w) or 1.0% (w/w), respectively.
(§4) Forty-four grams of the aforesaid common curry roux was dispersed in 300 g of hot water.
(§5) The dispersion of reduced-sodium curry roux dispersed in hot water and the dispersion of common curry roux dispersed in hot water were used as comparative controls, and the strength of the flavor was evaluated by three evaluators on the basis of the following evaluation criteria from the viewpoint of “top sharp saltiness”, “middle fullness (enhanced thickness) and “boosting of last flavor (aftertaste).”
(§6) The average of the evaluated scores was defined as “F” when it was 1.0 or lower, “C” when it was 1.1 or higher and 1.9 or lower, “B” when it was 2.0 or higher and 2.5 or lower, “A” when it was 2.6 or higher and 2.9 or lower, and “AA” when it was 3.0 or higher.
(§7) In the table described below, “ID” refers to the compound ID described above. The items of “coriander 0.5%” and “coriander 1.0%” refer to the addition of the aforesaid heat-treated coriander equivalent aqueous solution of cyclic dipeptide so that the final concentrations may be 0.5% (w/w) and 1.0% (w/w), respectively. The items of “paprika 0.5%” and “paprika 1.0%” refer to the addition of the aforesaid heat-treated paprika equivalent aqueous solution of cyclic dipeptide so that the final concentration may be 0.5% (w/w) and 1.0% (w/w), respectively.

[2] = Experiment 6 sensory evaluation of cyclic dipeptides, “middle fullness (enhanced thickness)”
Experimental: as §1, §2, §3, §4, §5, §6, §7

[3] = Experiment 6 sensory evaluation of cyclic dipeptides, “boosting of last flavor (aftertaste)”
Experimental: as §1, §2, §3, §4, §5, §6, §7

[4] = Additive amount coriander 0.5% (heat-treated coriander equivalent aqueous solution, final 0.5% (w/w)), reduced-sodium curry roux
[5] = Additive amount coriander 0.5%, reduced-sodium curry roux
[6] = heat-treated coriander equivalent aqueous solution of cyclic dipeptide, final 1.0% (w/w) in reduced-sodium curry roux dispersion
[7] = heat-treated coriander equivalent aqueous solution of cyclic dipeptide, final 1.0% (w/w) in reduced-sodium curry roux dispersion, 3 evaluators
[8] = Additive amount paprika 0.5% (heat-treated paprika equivalent aqueous solution, final 0.5% (w/w)), reduced-sodium curry roux
[9] = Additive amount paprika 0.5%, reduced-sodium curry roux
[10] = heat-treated paprika equivalent aqueous solution of cyclic dipeptide, final 1.0% (w/w) in reduced-sodium curry roux dispersion
[11] = heat-treated paprika equivalent aqueous solution of cyclic dipeptide, final 1.0% (w/w) in reduced-sodium curry roux dispersion, 3 evaluators

Row | Substance | Top sharp saltiness Average [1, 4] [points] | Top sharp saltiness Evaluation [1, 5] | Top sharp saltiness Evaluation [1, 6] | Top sharp saltiness Average [1, 7] [points] | Middle fullness Average [2, 5] [points] | Middle fullness Evaluation [2, 5] | Middle fullness Evaluation [2, 6] | Middle fullness Average [2, 7] [points] | Top sharp saltiness Average [1, 8] [points] | Top sharp saltiness Evaluation [1, 9] | Top sharp saltiness Evaluation [1, 10] | Top sharp saltiness Average [1, 11] [points] | Middle fullness Average [2, 9] [points] | Middle fullness Evaluation [2, 9] | Middle fullness Evaluation [2, 10] | Middle fullness Average [2, 11] [points] | Bosting of last flavor Average [3, 9] [points] | Bosting of last flavor Evaluation [3, 9] | Bosting of last flavor Evaluation [3, 10] | Bosting of last flavor Average [3, 11] [points] | also measured
1 | cyclic (Phe-Phe) [Coriander ID 43] | 2.3 | B (“B” when it was 2.0 or higher and 2.5 or lower) | A (“A” when it was 2.6 or higher and 2.9 or lower) | 2.8 | 2.3 | B (“B” when it was 2.0 or higher and 2.5 or lower) | A (“A” when it was 2.6 or higher and 2.9 or lower) | 2.7 |  |  |  |  |  |  |  |  |  |  |  |  | Bosting of last flavor Average [3, 5]: 3.2 points; Bosting of last flavor Evaluation [3, 5]: AA (“AA” when it was 3.0 or higher); Bosting of last flavor Evaluation [3, 6]: A (“A” when it was 2.6 or higher and 2.9 or lower); Bosting of last flavor Average [3, 7]: 2.7 points
2 | cyclic (Glu-Tyr) [Coriander ID 19] |  |  |  |  |  |  |  |  | 2.3 | B (“B” when it was 2.0 or higher and 2.5 or lower) | A (“A” when it was 2.6 or higher and 2.9 or lower) | 2.8 | 2.7 | A (“A” when it was 2.6 or higher and 2.9 or lower) | AA (“AA” when it was 3.0 or higher) | 3.0 | 2.5 | B (“B” when it was 2.0 or higher and 2.5 or lower) | A (“A” when it was 2.6 or higher and 2.9 or lower) | 2.8 | 
3 | cyclic (Phe-Ser) |  |  |  |  |  |  |  |  | 2.3 | B (“B” when it was 2.0 or higher and 2.5 or lower) | B (“B” when it was 2.0 or higher and 2.5 or lower) | 2.2 | 2.8 | A (“A” when it was 2.6 or higher and 2.9 or lower) | B (“B” when it was 2.0 or higher and 2.5 or lower) | 2.3 | 3.0 | AA (“AA” when it was 3.0 or higher) | B (“B” when it was 2.0 or higher and 2.5 or lower) | 2.3 | 
4 | cyclic (Val-Tyr) [Coriander ID 35] |  |  |  |  |  |  |  |  | 1.8 | C (“C” when it was 1.1 or higher and 1.9 or lower) | B (“B” when it was 2.0 or higher and 2.5 or lower) | 2.3 | 2.2 | B (“B” when it was 2.0 or higher and 2.5 or lower) | B (“B” when it was 2.0 or higher and 2.5 or lower) | 2.2 | 1.8 | C (“C” when it was 1.1 or higher and 1.9 or lower) | B (“B” when it was 2.0 or higher and 2.5 or lower) | 2.3 | 
5 | cyclic (Ala-Asn) [Coriander ID 56] | 2.3 | B (“B” when it was 2.0 or higher and 2.5 or lower) | B (“B” when it was 2.0 or higher and 2.5 or lower) | 2.0 | 2.3 | B (“B” when it was 2.0 or higher and 2.5 or lower) | A (“A” when it was 2.6 or higher and 2.9 or lower) | 2.7 |  |  |  |  |  |  |  |  |  |  |  |  | Bosting of last flavor Average [3, 5]: 2.3 points; Bosting of last flavor Evaluation [3, 5]: B (“B” when it was 2.0 or higher and 2.5 or lower); Bosting of last flavor Evaluation [3, 6]: B (“B” when it was 2.0 or higher and 2.5 or lower); Bosting of last flavor Average [3, 7]: 2.5 points
6 | cyclic (Thr-Leu/Ile) [Coriander ID 3] |  |  |  |  |  |  |  |  | 2.0 | B (“B” when it was 2.0 or higher and 2.5 or lower) | C (“C” when it was 1.1 or higher and 1.9 or lower) | 1.7 | 2.5 | B (“B” when it was 2.0 or higher and 2.5 or lower) | B (“B” when it was 2.0 or higher and 2.5 or lower) | 2.2 | 3.0 | AA (“AA” when it was 3.0 or higher) | C (“C” when it was 1.1 or higher and 1.9 or lower) | 1.7 | 
7 | cyclic (Glu-Gly) [Coriander ID 9] | 2.2 | B (“B” when it was 2.0 or higher and 2.5 or lower) | B (“B” when it was 2.0 or higher and 2.5 or lower) | 2.0 | 2.8 | A (“A” when it was 2.6 or higher and 2.9 or lower) | AA (“AA” when it was 3.0 or higher) | 3.0 |  |  |  |  |  |  |  |  |  |  |  |  | Bosting of last flavor Average [3, 5]: 2.8 points; Bosting of last flavor Evaluation [3, 5]: A (“A” when it was 2.6 or higher and 2.9 or lower); Bosting of last flavor Evaluation [3, 6]: B (“B” when it was 2.0 or higher and 2.5 or lower); Bosting of last flavor Average [3, 7]: 2.5 points
8 | cyclic (Pro-Asp) [Coriander ID 16] |  |  |  |  |  |  |  |  | 1.8 | C (“C” when it was 1.1 or higher and 1.9 or lower) | C (“C” when it was 1.1 or higher and 1.9 or lower) | 1.8 | 2.0 | B (“B” when it was 2.0 or higher and 2.5 or lower) | B (“B” when it was 2.0 or higher and 2.5 or lower) | 2.0 | 2.2 | B (“B” when it was 2.0 or higher and 2.5 or lower) | C (“C” when it was 1.1 or higher and 1.9 or lower) | 1.8 | 
9 | cyclic (Leu/Ile-Ser) [Coriander ID 24] |  |  |  |  |  |  |  |  | 2.9 | A (“A” when it was 2.6 or higher and 2.9 or lower) | C (“C” when it was 1.1 or higher and 1.9 or lower) | 1.7 | 3.1 | AA (“AA” when it was 3.0 or higher) | C (“C” when it was 1.1 or higher and 1.9 or lower) | 1.8 | 2.9 | A (“A” when it was 2.6 or higher and 2.9 or lower) | B (“B” when it was 2.0 or higher and 2.5 or lower) | 2.2 | 
10 | cyclic (Gly-Gly) [Coriander ID 54] | 2.2 | B (“B” when it was 2.0 or higher and 2.5 or lower) | A (“A” when it was 2.6 or higher and 2.9 or lower) | 2.8 | 2.5 | B (“B” when it was 2.0 or higher and 2.5 or lower) | A (“A” when it was 2.6 or higher and 2.9 or lower) | 2.7 |  |  |  |  |  |  |  |  |  |  |  |  | Bosting of last flavor Average [3, 5]: 3.0 points; Bosting of last flavor Evaluation [3, 5]: AA (“AA” when it was 3.0 or higher); Bosting of last flavor Evaluation [3, 6]: B (“B” when it was 2.0 or higher and 2.5 or lower); Bosting of last flavor Average [3, 7]: 2.3 points
